From publication PMC7869707 (European Journal of Medicinal Chemistry, 2021)

Test system: wild-type SARS-CoV-2 (wuhan-HU-1 variant)
Assay type: cell-based

C[C@@H]1O[C@@H](O[C@H]2[C@H](O[C@H]3CC[C@]4(C)[C@H]5CC=C6[C@@H]7CC(C)(C)CC[C@]7(C(=O)NCc7ccccc7)CC[C@@]6(C)[C@]5(C)CC[C@H]4C3(C)C)O[C@H](CO)[C@@H](O[C@@H]3O[C@@H](C)[C@H](O)[C@@H](O)[C@H]3O)[C@@H]2O)[C@H](O)[C@H](O)[C@H]1O [Compound 12f, N-{3β-O-[2,4-di-O-(a-L-rhamnopyranosyl)-β-D-glucopyranosyl]-olean-12-en-28-oyl}-benzylamine]
Inhibition of SARS-CoV-2 infection by IFA, NP expression: dose-dependent manner
